Consider 16 compounds from patent publication US12404295B2, “(Hetero)aryl-methyl-thio-beta-D-galactopyranoside derivatives” (Idorsia Pharmaceuticals Ltd, priority 2019, dated 2025).

As a reminder, the IC50 is the midpoint of a concentration-inhibition curve.

Where two headings read alike, the source gives them in different places.

One experiment deals with human Gal-3 (hGal-3) (Homo sapiens (Human), UniProt P17931). Kind of experiment: competitive binding assay: biotinylated hGal-3 binding to microplate-adsorbed asialofetuin (ASF). A digest of the protocol:
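Competition of compounds with biotinylated human Gal-3 for asialofetuin-coated plates, 3 hours at 4° C. Bound Gal-3 detected with streptavidin-peroxidase (80 ng/mL, 1 hour, 4° C) and ABTS substrate. IC50 reported as the mean of several measurements.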

The target in the next experiment is human Gal-1 (hGal-1) (Homo sapiens (Human), UniProt P09382). Kind of experiment: competitive binding assay: biotinylated hGal-1 binding to microplate-adsorbed asialofetuin (ASF). The following applies: Table 15; read-out: IC50 (Galectin-1 inhibition). On the procedure: Inhibition data of the epimers R and S of selected Examples are also listed.
Evaluation of Compound Inhibitory Activity (IC50)
The inhibitory activity of compounds is determined in competitive binding assays. This spectrophotometric assay measures the binding of biotinylated human Gal-3 (hGal-3) or human Gal-1 (hGal-1), respectively, to a microplate-adsorbed glycoprotein, asialofetuin (ASF) (Proc Natl Acad Sci USA. 2013 Mar. 26; 110(13):5052-7.).
Briefly, compounds are serially diluted in DMSO (working dilutions). ASF-coated 384 well plates are supplemented with 22.8 μL/well of biotinylated hGal-3 or hGal-1 in assay buffer (i.e. 300-1000 ng/mL biotinylated hGal-3 or hGal-1) to which 1.2 μL of compound working dilutions are added and mixed.
Plates are incubated for 3 hours at 4° C., then washed with cold assay buffer (3×50 uL), incubated for 1 hour with 25 μL/well of a streptavidin-peroxidase solution (diluted in assay buffer to 80 ng/mL) at 4° C., followed by further washing steps with assay buffer (3×50 uL). Finally, 25 μL/well of ABTS substrate is added.
The calculated IC50 values may fluctuate depending on the daily assay performance. Fluctuations of this kind are known to those skilled in the art. IC50 values from several measurements are given as mean values.

The mark [1] stands for this setting: Table 5, read-out: IC50 (Gal-3 inhibition).
Where [2] appears, read: Gal-3 inhibition, binding of biotinylated hGal-3 to ASF, mean values, read-out: IC50.

Chain of human Gal-3 (hGal-3) (P17931 whole entry): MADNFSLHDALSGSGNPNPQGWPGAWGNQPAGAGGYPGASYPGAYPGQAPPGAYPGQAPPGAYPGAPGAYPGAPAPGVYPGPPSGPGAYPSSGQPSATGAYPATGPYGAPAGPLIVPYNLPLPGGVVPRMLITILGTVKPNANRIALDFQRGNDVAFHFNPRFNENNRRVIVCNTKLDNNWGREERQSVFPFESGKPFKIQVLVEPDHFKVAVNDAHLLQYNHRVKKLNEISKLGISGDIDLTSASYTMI
Chain of human Gal-1 (hGal-1) (P09382 whole entry): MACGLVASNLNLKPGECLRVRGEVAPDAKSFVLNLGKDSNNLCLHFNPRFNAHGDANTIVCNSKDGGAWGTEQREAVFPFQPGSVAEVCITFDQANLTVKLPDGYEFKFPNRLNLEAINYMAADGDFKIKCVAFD

As to `Cc1nc(C)c(C(S[C@@H]2O[C@H](CO)[C@H](O)[C@H](n3cc(-c4cc(F)c(F)c(F)c4)nn3)[C@H]2O)C2(O)CCOCC2)nc1C` (stereo partly drawn) [Example 2.41.119., (2R,3R,4S,5R,6S)-2-(Hydroxymethyl)-6-(((4-hydroxytetrahydro-2H-pyran-4-yl)(3,5,6-trimethylpyrazin-2-yl)methyl)thio)-4-(4-(3,4,5-trifluorophenyl)-1H-1,2,3-triazol-1-yl)tetrahydro-2H-pyran-3,5-diol], the results for the IC50 at human Gal-3 (hGal-3) (setting [1]) and on human Gal-1 (hGal-1) were 160 nM and 20000 nM, respectively.
Regarding “(2S,3R,4S,5R,6R)-2-(((R)-((S)-4-Hydroxy-2,2-dimethyltetrahydro-2H-pyran-4-yl)(o-tolyl)methyl)thio)-6-(hydroxymethyl)-4-(4-(3,4,5-trifluorophenyl)-1H-1,2,3-triazol-1-yl)tetrahydro-2H-pyran-3,5-diol [Example 2.43.112RS.]”, the results for the IC50 at human Gal-3 (hGal-3) (setting [1]) and at human Gal-1 (hGal-1) were 130 nM and 400 nM, respectively.
In the case of `Cc1ncccc1C(S[C@@H]1O[C@H](CO)[C@H](O)[C@H](n2cc(-c3cc(F)c(F)c(F)c3)nn2)[C@H]1O)C(C)(C)O` (stereo partly drawn) [Example 2.31.116., (2S,3R,4S,5R,6R)-2-((2-Hydroxy-2-methyl-1-(2-methylpyridin-3-yl)propyl)thio)-6-(hydroxymethyl)-4-(4-(3,4,5-trifluorophenyl)-1H-1,2,3-triazol-1-yl)tetrahydro-2H-pyran-3,5-diol], the IC50 was determined as 300 nM on human Gal-3 (hGal-3) (setting [2]) and 3780 nM on human Gal-1 (hGal-1).
With `Cc1cccnc1[C@H](S[C@@H]1O[C@H](CO)[C@H](O)[C@H](n2cc(-c3cc(F)c(F)c(F)c3)nn2)[C@H]1O)C1(O)CCOCC1` [Example 2.41.126S., (2R,3R,4S,5R,6S)-2-(Hydroxymethyl)-6-(((S)-(4-hydroxytetrahydro-2H-pyran-4-yl)(3-methylpyridin-2-yl)methyl)thio)-4-(4-(3,4,5-trifluorophenyl)-1H-1,2,3-triazol-1-yl)tetrahydro-2H-pyran-3,5-diol], the IC50 at human Gal-3 (hGal-3) (setting [2]) turned out to be 2250 nM; on human Gal-1 (hGal-1), 70400 nM.
On to `CNS(=O)(=O)N1CCC(O)(C(S[C@@H]2O[C@H](CO)[C@H](O)[C@H](n3cc(-c4cc(F)c(F)c(F)c4)nn3)[C@H]2O)c2ccccc2C(F)(F)F)CC1` (stereo partly drawn) [Example 2.46.112., 4-((((2S,3R,4S,5R,6R)-3,5-Dihydroxy-6-(hydroxymethyl)-4-(4-(3,4,5-trifluorophenyl)-1H-1,2,3-triazol-1-yl)tetrahydro-2H-pyran-2-yl)thio)(2-(trifluoromethyl)phenyl)methyl)-4-hydroxy-N-methylpiperidine-1-sulfonamide], for which the IC50 at human Gal-3 (hGal-3) (setting [2]) was 50 nM; on human Gal-1 (hGal-1) it was 270 nM.
Take “(2S,3R,4S,5R,6R)-2-(((3,3-Difluoro-1-hydroxycyclobutyl)(3-(trifluoromethyl)pyridin-2-yl)methyl)thio)-6-(hydroxymethyl)-4-(4-(3,4,5-trifluorophenyl)-1H-1,2,3-triazol-1-yl)tetrahydro-2H-pyran-3,5-diol [Example 2.35.125.]”: the IC50 stood at 320 nM on human Gal-3 (hGal-3) (setting [1]) and 1460 nM on human Gal-1 (hGal-1).
For the compound `OCC(S[C@@H]1O[C@H](CO)[C@H](O)[C@H](n2cc(-c3cccc(F)c3)nn2)[C@H]1O)c1ccccc1Br` (stereo partly drawn) [Example 1.30.101., (2S,3R,4S,5R,6R)-2-((1-(2-Bromophenyl)-2-hydroxyethyl)thio)-4-(4-(3-fluorophenyl)-1H-1,2,3-triazol-1-yl)-6-(hydroxymethyl)tetrahydro-2H-pyran-3,5-diol], the IC50 on human Gal-3 (hGal-3) (setting [2]) is 1700 nM; on human Gal-1 (hGal-1), 5770 nM.
For `CC(C)(O)C(S[C@@H]1O[C@H](CO)[C@H](O)[C@H](n2cc(-c3cc(F)c(F)c(F)c3)nn2)[C@H]1O)c1ccccc1-c1ccccc1` (stereo partly drawn) [Example 2.31.110., (2S,3R,4S,5R,6R)-2-((1-([1,1′-Biphenyl]-2-yl)-2-hydroxy-2-methylpropyl)thio)-6-(hydroxymethyl)-4-(4-(3,4,5-trifluorophenyl)-1H-1,2,3-triazol-1-yl)tetrahydro-2H-pyran-3,5-diol], the IC50 turned out to be 180 nM on human Gal-3 (hGal-3) (setting [2]) and 400 nM at human Gal-1 (hGal-1).
Regarding `CO[C@@H]1[C@@H](n2cc(-c3cc(F)c(F)c(F)c3)nn2)[C@@H](O)[C@@H](CO)O[C@H]1S[C@H](c1ncccc1C1CC1)C1(O)CCC(F)(F)CC1` [Example 2.44.134R.I., (2R,3R,4S,5R,6S)-6-(((R)-(3-Cyclopropylpyridin-2-yl)(4,4-difluoro-1-hydroxycyclohexyl)methyl)thio)-2-(hydroxymethyl)-5-methoxy-4-(4-(3,4,5-trifluorophenyl)-1H-1,2,3-triazol-1-yl)tetrahydro-2H-pyran-3-ol [1,3-di-deoxy-1-((4,4-difluoro-1-hydroxy-cyclohexan-1-yl)-(3-(-cyclopropyl)pyridin-2-yl)methyl-(R)-thio)-2-O-methyl-3-[4-(3,4,5-trifluorophenyl)-1H-1,2,3-triazol-1-yl]-b-D-galactopyranoside]], the IC50 at human Gal-3 (hGal-3) (Table 9, 2-OMe-Gal inhibitors, read-out: IC50 (Gal-3 inhibition)) was 60 nM; at human Gal-1 (hGal-1), 110 nM.
Turning to `OC[C@H]1O[C@@H](SC(c2ccccc2C(F)(F)F)C2(O)CCNCC2)[C@H](O)[C@@H](n2cc(-c3cc(F)c(F)c(F)c3)nn2)[C@H]1O` (stereo partly drawn) [Example 2.45.112., (2R,3R,4S,5R,6S)-2-(Hydroxymethyl)-6-(((4-hydroxypiperidin-4-yl)(2-(trifluoromethyl)phenyl)methyl)thio)-4-(4-(3,4,5-trifluorophenyl)-1H-1,2,3-triazol-1-yl)tetrahydro-2H-pyran-3,5-diol], the IC50 turned out to be 130 nM on human Gal-3 (hGal-3) (setting [2]) and 460 nM on human Gal-1 (hGal-1).
As to `CC(=O)N1CCC(O)(C(S[C@@H]2O[C@H](CO)[C@H](O)[C@H](n3cc(-c4cc(F)c(F)c(F)c4)nn3)[C@H]2O)c2ccccc2C(F)(F)F)CC1` (stereo partly drawn) [Example 2.48.112., 1-(4-((((2S,3R,4S,5R,6R)-3,5-Dihydroxy-6-(hydroxymethyl)-4-(4-(3,4,5-trifluorophenyl)-1H-1,2,3-triazol-1-yl)tetrahydro-2H-pyran-2-yl)thio)(2-(trifluoromethyl)phenyl)methyl)-4-hydroxypiperidin-1-yl)ethan-1-one], the IC50 turned out to be 220 nM at human Gal-3 (hGal-3) (setting [2]) and 750 nM on human Gal-1 (hGal-1).
In the case of `CO[C@@H]1[C@@H](n2cc(-c3cc(F)c(F)c(F)c3)nn2)[C@@H](O)[C@@H](CO)O[C@H]1SC(c1nc(C)ccc1C)C1(O)CCC(F)(F)CC1` (stereo partly drawn) [Example 2.44.149.I., (2R,3R,4S,5R,6S)-6-(((4,4-Difluoro-1-hydroxycyclohexyl)(3,6-dimethylpyridin-2-yl)methyl)thio)-2-(hydroxymethyl)-5-methoxy-4-(4-(3,4,5-trifluorophenyl)-1H-1,2,3-triazol-1-yl)tetrahydro-2H-pyran-3-ol], the IC50 at human Gal-3 (hGal-3) (Table 11, read-out: IC50 (Gal-3 inhibition)) came out at 400 nM; on human Gal-1 (hGal-1), 2800 nM.
On to `CC(C)c1ccccc1C(S[C@@H]1O[C@H](CO)[C@H](O)[C@H](n2cc(-c3cc(F)c(F)c(F)c3)nn2)[C@H]1O)C(C)(C)O` (stereo partly drawn) [Example 2.31.105., (2S,3R,4S,5R,6R)-2-((2-Hydroxy-1-(2-isopropylphenyl)-2-methylpropyl)thio)-6-(hydroxymethyl)-4-(4-(3,4,5-trifluorophenyl)-1H-1,2,3-triazol-1-yl)tetrahydro-2H-pyran-3,5-diol], for which the IC50 on human Gal-3 (hGal-3) (setting [2]) was 180 nM; on human Gal-1 (hGal-1), 300 nM.
Take `CO[C@@H]1[C@@H](n2cc(-c3cc(F)c(C)c(F)c3)nn2)[C@@H](O)[C@@H](CO)O[C@H]1S[C@H](c1ncccc1C)C1(O)CCC(F)(F)CC1` [Example 3.44.126R.I., (2R,3R,4S,5R,6S)-6-(((R)-(4,4-Difluoro-1-hydroxycyclohexyl)(3-methylpyridin-2-yl)methyl)thio)-4-(4-(3,5-difluoro-4-methylphenyl)-1H-1,2,3-triazol-1-yl)-2-(hydroxymethyl)-5-methoxytetrahydro-2H-pyran-3-ol]: the IC50 on human Gal-3 (hGal-3) (Table 14, read-out: IC50 (Gal-3 inhibition)) worked out at 40 nM; at human Gal-1 (hGal-1) it was 2430 nM.
Take `CCn1nnc(C)c1C(S[C@@H]1O[C@H](CO)[C@H](O)[C@H](n2cc(-c3cc(F)c(F)c(F)c3)nn2)[C@H]1OC)C1(O)CCC(F)(F)CC1` (stereo partly drawn) [Example 2.44.138.I., (2R,3R,4S,5R,6S)-6-(((4,4-Difluoro-1-hydroxycyclohexyl)(1-ethyl-4-methyl-1H-1,2,3-triazol-5-yl)methyl)thio)-2-(hydroxymethyl)-5-methoxy-4-(4-(3,4,5-trifluorophenyl)-1H-1,2,3-triazol-1-yl)tetrahydro-2H-pyran-3-ol]: the IC50 amounted to 300 nM at human Gal-3 (hGal-3) (Table 10, 2-OMe-Gal inhibitors, read-out: IC50 (Gal-3 inhibition)) and 840 nM at human Gal-1 (hGal-1).
As for `OC[C@H]1O[C@@H](S[C@H](c2ncccc2C(F)(F)F)C2(O)CCC(F)(F)CC2)[C@H](O)[C@@H](n2cc(-c3cc(F)c(F)c(F)c3)nn2)[C@H]1O` [Example 2.44.125R., (2S,3R,4S,5R,6R)-2-(((R)-(4,4-Difluoro-1-hydroxycyclohexyl)(3-(trifluoromethyl)pyridin-2-yl)methyl)thio)-6-(hydroxymethyl)-4-(4-(3,4,5-trifluorophenyl)-1H-1,2,3-triazol-1-yl)tetrahydro-2H-pyran-3,5-diol], the results for the IC50 on human Gal-3 (hGal-3) (setting [1]) and at human Gal-1 (hGal-1) were 50 nM and 200 nM, respectively.
